Laboratory results taken from patent US20250000864A1, “GONADOTROPIN-RELEASING HORMONE ANTAGONIST, AND PREPARATION METHOD THEREFOR AND USE THEREOF” (SHANDONG LUYE PHARMACEUTICAL CO., LTD., priority 2021, published 2025).
Where two headings read alike, the source gives them in different places. Values belong to the compound of their own block, whether it stands above or below them.

Tests used:
[1] = Metabolic stability in human liver microsomes; assay type: in vitro ADME
Protocol: (§1) Liver Microsome: Rat Liver Microsome and Human Liver Microsome Reagent: NADPH, Roche Diagnostics Gmbh; ACN, Merck Chemical; Tolbutamide, Sigma. Instrument: water purification equipment, Millipore; electronic balance, METTLER TOLEDO; high-speed benchtop centrifuge, Thermo; water bath thermostatic oscillator, Shanghai Yiheng Technical Co., Ltd.; vortex oscillator, Thermo; LC-MS/MS, AB SCIEX. Method: the metabolic stability of test substances was evaluated by using SD rat and human liver microsomes. The test substances were incubated with liver microsomes from different species by using NADPH under a water bath at 37° C. A cold acetonitrile solution containing a Tolbutamide internal standard substance was added at a specified time point to terminate the reaction. The samples were pre-treated and then subjected to semi-quantitative analysis by LC-MS/MS. The retention times of the analytes and Tolbutamide internal standard, the acquisition of chromatograms, and the integration of chromatograms were processed using software Analyst (A Sciex, Framingham, Massachusetts, USA). The in vitro elimination rate constant Ke of the samples was obtained by converting the ratio of the peak area of the samples to the peak area of the internal standard into the residual percentage, and the in vitro clearance rate and the half-life of the test samples were calculated.

[2] = Metabolic stability in rat liver microsomes; assay type: in vitro ADME, SD rat; conditions: Rat liver microsomes
Protocol: as §1

[3] = Pharmacokinetics in SD rats (i.v. and i.g.); assay type: in vivo; conditions: for bioavailability: i.g 12 mg/kg vs i.v 1 mg/kg, read-out: F (absolute bioavailability)
Protocol: (§2) Instrument: water purification equipment, Millipore; electronic balance, METTLER TOLEDO; high-speed benchtop centrifuge, Thermo; water bath thermostatic oscillator, Shanghai Yiheng Technical Co., Ltd.; vortex oscillator, Thermo; LC-MS/MS, AB SCIEX.
(§3) Method: all compounds were formulated in DMSO and 20% solutol. In the pharmacokinetic experiment, the administration dose for the intravenous group (i.v) was 1 mg/kg, and the administration dose for the intragastric group (i.g) was 12 mg/kg, each group containing 3 rats. Blood was collected from the orbit of the rats before (0 h) the administration and at set time points after administration. In the tissue distribution experiment, the rats were subjected to intragastric administration at a dose of 12 mg/kg. […] The […] in a heparinized EP tube and centrifuged at 13,500 rpm for 10 min to isolate the plasma. The pituitary was homogenized with water in a certain proportion. The plasma and pituitary homogenates were pre-treated and then analyzed by LC-MS/MS to determine the concentration of the test substances in the plasma and the pituitary. The plasma drug concentration data were processed in a non-compartmental model using WinNonlin™ Version 6.3 (Pharsight, Mountain View, CA) pharmacokinetic software.

[4] = Pituitary tissue distribution in SD rats after intragastric administration; assay type: in vivo; parameters: Plasma concentration / Pituitary concentration: unit not given here; conditions: i.g 12 mg/kg; for Concentration in the pituitary relative to Relugolix: vs Relugolix; for Concentration in the pituitary relative to compound 2A: vs compound 2A
Protocol: as §2, §3

[5] = Caco-2 two-way permeability and efflux; assay type: in vitro ADME; conditions: human; for efflux ratio at 120 min: Caco-2
Protocol: (§4) Instrument: water purification equipment, ELGA LabWate; biosafety cabinet, NUAIRE; thermostatic CO2 incubator, Thermo; microplate reader, PerkinElmer; LC-MS/MS, AB SCIEX.
(§5) Method: A Caco-2 monolayer cell model was used to determine the two-way permeability of the test substances and evaluate whether the test substances were transported by the efflux of a transporter. In the experiment, Caco-2 cells were seeded into a 96-well cell culture plate and cultured for 28 consecutive days for transport assay. The test substances were each administered on two sides. After being incubated for 120 min, the samples at the apical end A, at the basal end B, and with cell lysis were collected and quantitatively determined for the content of the test substances by using a liquid chromatography-tandem mass spectrometry (LC/MS/MS) method. The apparent permeability coefficient (Papp) in the direction from the apical end to the basal end (A-B) and in the direction from the basal end to the apical end (B-A) and the efflux ratio were calculated from the concentrations of the test substances.

Caco-2 cells = assay: Caco-2 two-way permeability and efflux; assay type: in vitro ADME
Protocol: as §4, §5

[6] = target: human hERG potassium channel (Homo sapiens (Human), UniProt Q12809); assay: hERG test (QPatch automated patch clamp, CHO cells); assay type: cell-based; conditions: for Inhibitory activity on the human hERG potassium channel compared with Relugolix: in words, vs Relugolix
Sequence of human hERG potassium channel (Q12809 whole entry): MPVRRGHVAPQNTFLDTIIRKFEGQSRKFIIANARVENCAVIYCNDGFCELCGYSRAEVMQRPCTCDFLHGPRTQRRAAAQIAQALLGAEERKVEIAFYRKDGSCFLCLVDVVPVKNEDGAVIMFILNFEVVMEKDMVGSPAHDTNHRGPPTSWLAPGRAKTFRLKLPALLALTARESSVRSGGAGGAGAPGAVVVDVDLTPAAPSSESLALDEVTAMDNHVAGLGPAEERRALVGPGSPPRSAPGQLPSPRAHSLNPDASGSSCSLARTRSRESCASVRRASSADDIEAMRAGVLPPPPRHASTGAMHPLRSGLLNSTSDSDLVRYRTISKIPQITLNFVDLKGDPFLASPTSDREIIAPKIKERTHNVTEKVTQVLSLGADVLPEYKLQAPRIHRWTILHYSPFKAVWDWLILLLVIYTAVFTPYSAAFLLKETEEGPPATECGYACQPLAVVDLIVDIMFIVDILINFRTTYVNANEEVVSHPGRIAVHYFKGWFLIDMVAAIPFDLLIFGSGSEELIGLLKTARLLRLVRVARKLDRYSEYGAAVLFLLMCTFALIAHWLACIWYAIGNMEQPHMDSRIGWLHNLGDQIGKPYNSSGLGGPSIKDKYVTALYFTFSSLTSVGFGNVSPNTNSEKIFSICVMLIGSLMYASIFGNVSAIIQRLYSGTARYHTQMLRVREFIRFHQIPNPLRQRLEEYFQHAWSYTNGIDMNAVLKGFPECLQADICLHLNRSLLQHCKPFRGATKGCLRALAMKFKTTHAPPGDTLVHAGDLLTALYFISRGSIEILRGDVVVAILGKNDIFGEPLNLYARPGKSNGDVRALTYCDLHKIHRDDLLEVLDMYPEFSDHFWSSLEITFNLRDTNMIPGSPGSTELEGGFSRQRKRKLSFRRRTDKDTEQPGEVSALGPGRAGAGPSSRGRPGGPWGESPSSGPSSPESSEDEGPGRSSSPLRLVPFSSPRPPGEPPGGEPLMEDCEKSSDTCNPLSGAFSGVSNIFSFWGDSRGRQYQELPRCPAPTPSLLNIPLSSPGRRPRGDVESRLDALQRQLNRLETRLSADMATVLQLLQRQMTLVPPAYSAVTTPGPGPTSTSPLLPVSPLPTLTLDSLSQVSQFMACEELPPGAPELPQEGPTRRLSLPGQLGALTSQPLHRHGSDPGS
Protocol: Cell: CHO cells stably expressing a human hERG potassium channel (WuXi AppTec (Shanghai) Co., Ltd.) Reagent: physiological solution (pH=7.4): 140 mM NaCl, 4 mM KCl, 2 mM CaCl2), 1 mM MgCl2, 5 mM Glucose, 10 mM HEPES, Osmolarity: about 298 mOsm; external solution (pH=7.4): 80 mM NaCl, 4 mM KCl, 2 mM CaCl2), 1 mM MgCl2, 5 mM Glucose, 60 mM NMDG, 10 mM HEPES, Osmolarity: about 289 mOsm; internal solution (pH=7.4): 10 mM NaCl, 10 mM KCl, 110 mM KF, 10 mM HEPES, EGTA: […], Osmolarity: about 280 mOsm.
Equipment: QPatch high-throughput automated patch clamp system, Sophion.
Method: CHO cells stably expressing a human hERG potassium channel were digested with TrypLE and resuspended in a physiological solution for later use. The single-cell high-impedance sealing and whole-cell mode formation processes were automatically completed by Qpatch. The clamping voltage for the cells was −80 mV. Then a voltage of −50 mV was applied for 80 ms to subtract (current) leakage, and a voltage of +20 mV was applied for 4800 ms to open the hERG channel. The voltage was then reduced to −50 mV and maintained for 5000 ms. This process was used for data collection and analysis. Finally, the voltage was returned to the clamping voltage (−80 mV, 1000 ms). This process was repeated every 20,000 ms. 40 μL of solvent control (external solution+DMSO) was added first, and the test was performed for […] to collect baseline data. Then, 40 μL of each of the test compounds was added at various concentrations, and the test was performed for no less than […]. The compounds were each dissolved in DMSO, with test concentrations being 0.30 μM, 1.00 μM, 3.00 μM, 10.00 μM, and 30.00 μM. The IC50 data for the hERG test were obtained by analyzing using DataControl, Excel2013, and Prism.

human GnRHR [7] = target: T1, human GnRHR (Homo sapiens (Human), UniProt P30968); assay: In vitro binding screening ([125I][D-Trp6]-LH-RH displacement, Chem-1 cell membranes)
T1 sequence (P30968 whole entry): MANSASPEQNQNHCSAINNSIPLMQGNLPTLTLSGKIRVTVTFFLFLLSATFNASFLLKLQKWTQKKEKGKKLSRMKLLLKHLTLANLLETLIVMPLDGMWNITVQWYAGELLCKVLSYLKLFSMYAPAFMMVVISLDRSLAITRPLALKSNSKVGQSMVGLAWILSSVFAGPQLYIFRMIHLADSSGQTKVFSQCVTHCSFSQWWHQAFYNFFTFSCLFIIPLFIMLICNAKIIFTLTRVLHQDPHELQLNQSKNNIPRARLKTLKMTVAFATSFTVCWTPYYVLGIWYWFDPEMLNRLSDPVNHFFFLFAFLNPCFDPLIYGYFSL
Protocol: [D-Trp6]-LH-RH, PerkinElmer; [D-Trp6]-LH-RH, Abcam.
Equipment: MicroBeta2 LumiJET system, PerkinElmer.
Method: Chem-1 cell membranes stably expressing human GnRHR were resuspended in HEPES at pH 7.4. […] [D-Trp6]-LH-RH was used in the non-specific binding assay. Cell membranes were collected by filtration under vacuum and washed before liquid scintillation. The binding IC50 and IC90 of the compounds were calculated using Prism.

human GnRHR [8] = target: T1, human GnRHR; assay: In vitro antagonistic activity screening (FLIPR calcium fluorescence, Leuprolide acetate stimulation); assay type: cell-based; conditions: HEK293 cells stably expressing human GnRHR
Protocol: Cell: HEK293 cells stably expressing human GnRHR (WuXi AppTec (Shanghai) Co., Ltd.) Equipment: 384-well plate, Greiner; Vi-cell XR Cell Viability Analyzer, Beckman Coulter; incubator, Thermo.
Method: HEK293 cells stably expressing human GnRHR were seeded into a 384-well plate at a density of 20,000/well. Fluo-4 Direct™ No-wash Loading Buffer (Invitrogen) was added to each well the next day, and then the plate was put back into an incubator, incubated at 37° C. for 50 min, and then incubated at room temperature for 10 min. Test compounds were formulated in DMSO. […] Fluorescence values were determined using a FLIPR Tetra high throughput real-time fluorescence detection and assay system. Then 10 μL of Leuprolide acetate was added, and fluorescence values were determined. IC50 and IC90 of the compounds were calculated using Prism.

[9] = intragastric group, vs Relugolix
[10] = intragastric group, vs compound 2A
[11] = male, Sprague-Dawley (SD), rat, plasma, iv, i.v 1 mg/kg
[12] = male, Sprague-Dawley (SD), rat, plasma, po, i.g 12 mg/kg

CLint scaled [1]: 4.86 mL/min/kg | half-life [1]: 4.28 h | Residual content at 60 min ([1]; NADPH, 37° C.): 83.8% | microsomal CLint ([1]; read-out: CLint(mic)): 5.4 µL/min/mg | Residual content at 60 min ([2]; NADPH, 37° C.): 61.0% | CLint scaled ([2]; SD): 28.4 mL/min/kg | half-life ([2]; SD): 1.46 h | microsomal CLint ([2]; SD, read-out: CLint(mic)): 15.8 µL/min/mg | AUClast relative to Relugolix [3, 9]: 2.45 fold | Absolute bioavailability relative to Relugolix [3, 9]: 3.47 fold | Cmax relative to Relugolix [3, 9]: 3.63 fold | AUClast relative to compound 2A [3, 10]: 0.96 fold | Absolute bioavailability relative to compound 2A [3, 10]: 3.14 fold | Cmax relative to compound 2A [3, 10]: 1.12 fold | bioavailability ([3]; male, rat, plasma, oral): 19.9% | Pituitary concentration ([4]; 1 h): 2250 ± 474 | Pituitary/plasma ([4]; 1 h): 56.9 | Plasma concentration ([4]; 1 h): 39.5 ± 14.0 | Concentration in the pituitary relative to Relugolix ([4]; 1 h): 2.38 fold | Concentration in the pituitary relative to compound 2A ([4]; 1 h): 8.04 fold | Pituitary concentration ([4]; 4 h): 1841 ± 636 | Pituitary/plasma ([4]; 4 h): 80.8 | Plasma concentration ([4]; 4 h): 22.8 ± 2.5 | Concentration in the pituitary relative to Relugolix ([4]; 4 h): 1.48 fold | Concentration in the pituitary relative to compound 2A ([4]; 4 h): 6.60 fold | Pituitary concentration ([4]; 12 h): 1254 ± 494 | Pituitary/plasma ([4]; 12 h): 129 | Plasma concentration ([4]; 12 h): 9.70 ± 3.10 | Concentration in the pituitary relative to Relugolix ([4]; 12 h): 2.46 fold | Concentration in the pituitary relative to compound 2A ([4]; 12 h): 3.77 fold | efflux ratio at 120 min [5]: ~6 | Efflux ratio (Caco-2 cells; Caco-2): 294 | Mean Papp A to B (Caco-2 cells; Caco-2, 120 min incubation): 0.0142 10^−6 cm/s | Mean Papp B to A (Caco-2 cells; Caco-2, 120 min incubation): 4.19 10^−6 cm/s
SMILES: CCNC(=O)Nc1ccc(-c2sc3c(c2CN(C)C)c(=O)n(-c2ccc(OC)nn2)c(=O)n3Cc2c(F)cccc2F)cn1 [Compound 2]
Inhibitory activity on the human hERG potassium channel compared with Relugolix [6]: equal to or less than that of Relugolix

AUC(0-t) [3, 11]: 487 ± 150 ng·h/mL | C0 [3, 11]: 521 ± 322 ng/mL | MRT last [3, 11]: 4.14 ± 1.83 h | half-life [3, 11]: 6.64 ± 3.1 h | AUC(0-t) [3, 12]: 370 ± 109 ng·h/mL | Cmax [3, 12]: 69.9 ± 15.1 ng/mL | MRT last [3, 12]: 9.2 ± 2.3 h | half-life [3, 12]: 18 ± 15.9 h | bioavailability ([3]; male, Sprague-Dawley (SD), rat, plasma, po): 6.33% | Tmax ([3]; male, Sprague-Dawley (SD), rat, plasma, po, i.g 12 mg/kg, read-out: Tmax): 0.25 h | Pituitary concentration ([4]; 1 h): 280 ± 80 | Plasma concentration ([4]; 1 h): 32.2 ± 18.0 | Pituitary concentration ([4]; 4 h): 279 ± 70 | Plasma concentration ([4]; 4 h): 13.3 ± 5.1 | Pituitary concentration ([4]; 12 h): 333 ± 90 | Plasma concentration ([4]; 12 h): 5.59 ± 1.55 | Kp at 1 h ([4]; male, Sprague-Dawley (SD), rat, pituitary/plasma, oral, 1 h): 8.7 | Kp at 4 h ([4]; male, Sprague-Dawley (SD), rat, pituitary/plasma, oral, 4 h): 21 | Kp at 12 h ([4]; male, Sprague-Dawley (SD), rat, pituitary/plasma, oral, 12 h): 59.6 | IC90 (human GnRHR [7]): 13.2 nM | IC50 (human GnRHR [7]; Chem-1 cell membranes, 0.05 nM [125I]-[D-Trp6]-LH-RH): 0.87 nM | efflux ratio at 120 min ([5]; read-out: Efflux ratio): 1180 | Papp A→B at 120 min ([5]; Caco-2, 120 min incubation): 0.00816 ×10⁻⁶ cm/s | Papp B→A at 120 min ([5]; Caco-2, 120 min incubation): 9.65 ×10⁻⁶ cm/s | IC50 (human GnRHR [8]; read-out: Functional IC50): 1.84 nM | IC90 (human GnRHR [8]; read-out: Functional IC90): 8.19 nM
SMILES: CCNC(=O)Nc1ccc(-c2sc3c(c2CN(C)C)c(=O)n(-c2ccc(OC)nn2)c(=O)n3Cc2c(F)cccc2F)cc1 [Compound 2A]
IC50 ([6]; CHO cells stably expressing human hERG potassium channel): 6070 nM | Inhibitory activity on the human hERG potassium channel compared with Relugolix [6]: equal to or less than that of Relugolix
